Test results from patent US20250127806A1, “INJECTABLE LIQUID PHARMACEUTICAL COMPOSITION CONTAINING GEMCITABINE AND A CYTIDINE DEAMINASE INHIBITOR” (ST. JOHN'S UNIVERSITY, priority 2021, published 2025).
≈ marks a conversion by molar mass, not a printed value.

Legend:
[1] = Saturation solubility of Gemcitabine free base in various solvents; assay type: physicochemical; details: for solubility: thermodynamic from solid
Description: In order to select a biocompatible solvent for the development of in situ depot, we carried out saturation solubility of Gemcitabine free base in 12 different organic solvent which are safe to be used for subcutaneous administration in mice. […] However, since NMP is already used in marketed in situ depot formulations and is FDA approved, we used it as a biocompatible solvent to prepare the various polymeric solutions.

[2] = test system: MIAPACA-2 xenograft tumors; assay type: in vivo; details: s.c. depot every 3rd day, four doses, Gem 10 mg/kg, Zeb 76 mg/kg
Description: All experiments were done in accordance with the guidelines of the Institutional Animal Care and Use Committee (IACUC) at St John's university. MiaPaca-2 pancreatic cancer cells were maintained in DMEM medium supplemented with 100 U/mL penicillin, 1% streptomycin, 10% fetal bovine serum (FBS), in a humidified 5% CO2 atmosphere at 37° C. After acclimation for 7 days, mice were subcutaneously (s.c.) injected in the right flank with Matrigel (BD Biosciences, San Jose, CA, USA) containing 1.5×10^6 MiaPaca-2 cells. The mice were monitored closely for tumor growth by palpation and visual examination. Palpable and measurable tumors were found beginning 5-7 days after cells were injected. Tumor volume was calculated using the equation: tumor volume=(length×width×height)/2. Once the tumors reached a size of 80-120 mm^3 mice were randomly divided into 4 groups to receive s.c. injection (N=6 in each group) of respective in situ depot formulation.
Total four doses of each formulation were given. A syringe with 27G needle was used to administer 10 ul of depot formulation. Post administration, the syringe was left in the same position for 30 sec in order to obviate the sudden leakage of formulation and to facilitate the gelling of entire volumes of formulations at 37° C. Measurements of tumor size and body weight was taken every alternate day using digital calipers. […]

Question: For Nc1ccn([C@@H]2O[C@H](CO)[C@@H](O)C2(F)F)c(=O)n1 [Gemcitabine free base, Gemcitabine], which solubility ([1]; N,N-dimethylacetamide (DMA), organic solvent or mixture, saturation solubility in N,N Dimethylacetamide (DMA)) is on record?
Answer: ~616 mg/mL (≈ 2340 mM)

Question: What about the solubility ([1]; N-methyl pyrrolidone (NMP), organic solvent or mixture, saturation solubility in N-methyl pyrrolidone (NMP)) of the same compound?
Answer: ~470 mg/mL (≈ 1790 mM)

Question: What about the solubility ([1]; diglyme, organic solvent or mixture, saturation solubility in Diglyme) of the same compound?
Answer: 3.81 ± 0.63 mg/mL (≈ 14.5 mM)

Question: And the solubility ([1]; ethyl lactate, organic solvent or mixture, saturation solubility in Ethyl lactate)?
Answer: 18.4 ± 0.34 mg/mL (≈ 69.7 mM)

Question: What about the solubility ([1]; glycerol formal, organic solvent or mixture, saturation solubility in Glycerol formal) of the same compound?
Answer: 104 ± 2.03 mg/mL (≈ 397 mM)

Question: And the solubility ([1]; isosorbide dimethyl ether, organic solvent or mixture, saturation solubility in Isosorbide dimethyl ether)?
Answer: 8.39 ± 0.4 mg/mL (≈ 31.9 mM)

Question: What about the solubility ([1]; polyethylene glycol 300, organic solvent or mixture, saturation solubility in Polyethylene glycol 300) of the same compound?
Answer: 185 ± 13.3 mg/mL (≈ 703 mM)

Question: What about the solubility ([1]; polyethylene glycol 400, organic solvent or mixture, saturation solubility in Polyethylene glycol 400) of the same compound?
Answer: 151 ± 2.89 mg/mL (≈ 572 mM)

Question: And the solubility ([1]; propylene glycol, organic solvent or mixture, saturation solubility in Propylene glycol)?
Answer: 160 ± 8.29 mg/mL (≈ 609 mM)

Question: And the “Solubility of Gemcitabine free base” value ([1]; saturation solubility in N-methyl pyrrolidone (NMP))?
Answer: 470.70 ± 3.56 mg/mL

Question: What about the solubility ([1]; solketal, organic solvent or mixture, saturation solubility in Solketal) of the same compound?
Answer: 17.73 ± 0.008 mg/mL (≈ 67.4 mM)

Question: And the solubility ([1]; tetraglycol/glycofurol, organic solvent or mixture, saturation solubility in Tetraglycol/Glycofurol)?
Answer: 129 ± 1.49 mg/mL (≈ 492 mM)

Question: What about the solubility ([1]; tetrahydrofurfuryl alcohol, organic solvent or mixture, saturation solubility in Tetrahydrofurfuryl alcohol) of the same compound?
Answer: 221 ± 4.97 mg/mL (≈ 841 mM)

Question: And the solubility ([1]; water, saturation solubility in Water)?
Answer: 21.8 ± 1.44 mg/mL (≈ 82.9 mM)

Question: And the “Antitumor efficacy (tumor volume)” value ([2]; FIG. 3(a))?
Answer: decreased the tumor volume

Question: What about the Median survival ([2]; FIG. 3(c)) of the same compound?
Answer: around 18 days
